The EC50 is the concentration giving half of the maximal effect.

This note sets out measurements from publication PMC6892255, “Identification of a potent small-molecule inhibitor of bacterial DNA repair that potentiates quinolone antibiotic activity in methicillin-resistant Staphylococcus aureus^” (Bioorganic & Medicinal Chemistry, 2019).

Molecules are shown by their SMILES. Some results are limits rather than exact numbers.

One assay relates to E. coli K-12 BW25113. Nature of the assay: MIC / growth inhibition assay (end-point OD600), single agent. In kind it is cell-based, Escherichia coli. The settings on record: Escherichia coli, BW25113, end-point OD600 after 18 h, read-out: EC50 E. coli (K12 BW25113) Compound only. The source says: (§1) Minimum inhibitory concentration (MIC) assays were used to evaluate the antimicrobial activity of compounds against Gram-negative (E. coli) and Gram-positive (S. aureus) bacteria. […] Gram-positive bacteria are more susceptible to small-molecule penetration, and compounds were therefore assessed for growth inhibition against the S. aureus SH1000 strain.
(§2) 2.1. Biological and biochemical methods
(§3) Bacterial strains and culture conditions
(§4) Strains utilized in the present study are detailed in Table S1. All strains used were cultivated on Mueller Hinton Agar (MHA) and grown to stationary-phase in Mueller Hinton Broth (MHB) at 37 °C for 16 h, with shaking at 180 r.p.m.
(§5) Minimum inhibitory concentration (MIC) assays
(§6) MIC assays were performed in 96 well plates and MICs were determined in accordance with the broth microdilution protocol.4 Strains grown to stationary-phase in MHB were adjusted to 5 x 10^5 colony-forming units (CFU)/mL in fresh MHB (100 µL/well) supplemented with DMSO to ensure a constant concentration of 0.5% (v/v) DMSO across all experiments. Where […]
(§7) or H2O2 (200 μM). Test compounds were prepared as two-fold serial dilutions. Cells were […]
(§8) as the lowest concentration with no visible bacterial growth, and the optical density at 600 nm (OD600) was recorded. OD600 measurements were background corrected against no-inocula control and normalized to DMSO control for dose-response analysis. The EC50 value mean and SEM were calculated from individual EC50 values from three biological replicates. […]

Another assay relates to JE2. Nature of the assay: Synergy experiments with CFX (growth rate method, Chou-Talalay, CompuSyn). Particulars: for Combination index (CI) with CFX: JE2, constant-ratio combination with CFX, CompuSyn; for EC50: Staphylococcus aureus, JE2, rate of exponential growth phase over 17 h at 37 °C. In kind it is cell-based, Staphylococcus aureus. How it is done:
A more precise method to determine EC50 values for individual compounds and combinations was used to increase accuracy for CI calculations. […]
Synergy experiments were performed as described for MIC assays. Two-fold serial dilutions […]
carried out at 37 °C, with shaking at 220 r.p.m. OD600 was recorded every 30 min over a 17 h period. Measurements were background corrected against the no-inocula control before a growth curve of OD600 against time was constructed. The gradient of the exponential phase was obtained by linear regression. Gradients were normalized against the smallest and largest value within the respective data set prior to analysis with the CompuSyn software (http://www.combosyn.com/) to calculate combination index (CI) and dose-reduction index (DRI) values for each drug combination. […]

The next assay has as its system S. aureus SH1000. Nature of the assay: MIC / growth inhibition assay (end-point OD600), single agent. The format is cell-based. The settings on record: Staphylococcus aureus, SH1000, 18 h, end-point OD600 after 18 h, read-out: EC50 S. aureus (SH1000) Compound only.
Excerpt: as §1, §2, §3, §4, §5, §6, §7, §8

Assay [1] has as its system methicillin-resistant S. aureus (MRSA, USA300 JE2). Nature of the assay: Ciprofloxacin (CFX) potentiation in MRSA growth inhibition assay. The format is cell-based, Staphylococcus aureus. The settings on record: for EC50: read-out: EC50 S. aureus (USA300 JE2) Compound + CFX (9.4 μM), in presence of half-MIC CFX (9.4 μM). How it is done:
as §2, §3, §4, §5, §6, §7, §8

In assay [2] the test system is MRSA (USA300 JE2). Briefly: Growth inhibition in the presence of H2O2. The format is cell-based, Staphylococcus aureus. Particulars: read-out: EC50 Compound + H2O2 (200 µM); MRSA USA300 JE2, H2O2 200 µM. How it is done:
(§9) The analogue panel was further tested for potentiation of alternative DNA-damaging agents Mitomycin-C (MMC) and hydrogen peroxide (Table S2), which function via alkylation and oxidization DNA bases, respectively.
as §2, §3, §4, §5, §6, §7, §8

Assay [3] has as its system methicillin-resistant S. aureus (MRSA, USA300 JE2). Briefly: MIC / growth inhibition assay (end-point OD600), single agent. The format is cell-based, Staphylococcus aureus.
Excerpt: as §1
Methicillin-resistant S. aureus (MRSA) is a multi-drug resistant bacterium responsible for a large number of nosocomial infections.[34] The emergence of community associated (CA)-MRSA capable of infection of healthy individuals highlights its significance and clinical relevance.[35]
as §2, §3, §4, §5, §6, §7, §8

The next assay addresses T1, E. coli topoisomerase IV (Escherichia coli, UniProt P0AFI2+P20083).
T1 construct: purchased Inspiralis
Nature of the assay: Topoisomerase IV supercoiling relaxation assay (pQE80L). In kind it is biochemical. Particulars: at 12.5 µM (compounds). How it is done: 2.1. Biological and biochemical methods […]
E. coli DNA gyrase supercoiling assay (Inspiralis) was performed according to the manufacturer’s instructions, ensuring a constant concentration of 1% (v/v) DMSO. Samples were separated on a 1% (w/v) agarose gel prepared with Tris/Borate/EDTA (TBE) buffer (1 M Tris-borate, 20 mM EDTA, pH 8.0). Electrophoresis was performed at 100 V until the bromophenol blue dye had run >6 cm to ensure resolution of relaxed and supercoiled DNA.
The gel was stained with SYBR Safe DNA gel stain (Invitrogen, 1:10,000 dilution in TBE) for 30 min, and visualized on a Syngene Gel Doc system. Band intensity was quantified using ImageJ software and the fraction of supercoiled plasmid was determined as the ratio of the density of the supercoiled band to the total density. Values were background corrected against the no-gyrase control and normalized to DMSO control for dose-response analysis.
E. coli topoisomerase IV supercoiling relaxation assay (Inspiralis) was performed according to the manufacturer’s instructions, ensuring a constant concentration of 1% (v/v) DMSO.
Supercoiled pQE80L was prepared via plasmid purification and used as the substrate for the reaction. Reactions were analyzed as described for DNA gyrase assays. […]

Assay [4] deals with MRSA (USA300 JE2). Briefly: Growth inhibition in the presence of mitomycin-C. In kind it is cell-based, Staphylococcus aureus. The settings on record: read-out: EC50 Compound + MMC (0.40 µM); MRSA USA300 JE2, mitomycin-C 0.40 µM. As for the experimental part:
as §9, §2, §3, §4, §5, §6, §7, §8

[5] abbreviates: Staphylococcus aureus, 18 h, read-out: EC50 S. aureus (USA300 JE2) Compound only, single agent, end-point OD600 after 18 h.

T1 sequence (P0AFI2 whole entry): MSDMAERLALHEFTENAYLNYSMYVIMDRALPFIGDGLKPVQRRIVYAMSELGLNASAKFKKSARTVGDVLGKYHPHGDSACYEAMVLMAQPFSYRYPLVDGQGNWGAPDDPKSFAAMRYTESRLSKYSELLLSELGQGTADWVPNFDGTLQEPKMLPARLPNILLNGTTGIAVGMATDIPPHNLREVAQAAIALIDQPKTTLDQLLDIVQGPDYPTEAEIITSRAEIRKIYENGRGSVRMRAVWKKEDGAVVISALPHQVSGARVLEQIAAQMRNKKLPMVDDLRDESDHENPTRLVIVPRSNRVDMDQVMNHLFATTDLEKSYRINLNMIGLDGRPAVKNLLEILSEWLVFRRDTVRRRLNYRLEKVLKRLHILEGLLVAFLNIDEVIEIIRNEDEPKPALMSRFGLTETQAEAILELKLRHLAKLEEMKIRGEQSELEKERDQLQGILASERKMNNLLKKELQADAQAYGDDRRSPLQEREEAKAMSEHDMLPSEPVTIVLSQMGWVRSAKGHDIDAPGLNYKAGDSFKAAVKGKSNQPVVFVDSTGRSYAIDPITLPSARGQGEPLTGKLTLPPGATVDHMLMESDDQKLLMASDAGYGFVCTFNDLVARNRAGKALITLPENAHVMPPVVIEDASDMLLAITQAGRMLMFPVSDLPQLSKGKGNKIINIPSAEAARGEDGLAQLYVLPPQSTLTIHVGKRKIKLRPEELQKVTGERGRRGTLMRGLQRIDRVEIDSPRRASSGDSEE
T1 sequence (P20083 whole entry): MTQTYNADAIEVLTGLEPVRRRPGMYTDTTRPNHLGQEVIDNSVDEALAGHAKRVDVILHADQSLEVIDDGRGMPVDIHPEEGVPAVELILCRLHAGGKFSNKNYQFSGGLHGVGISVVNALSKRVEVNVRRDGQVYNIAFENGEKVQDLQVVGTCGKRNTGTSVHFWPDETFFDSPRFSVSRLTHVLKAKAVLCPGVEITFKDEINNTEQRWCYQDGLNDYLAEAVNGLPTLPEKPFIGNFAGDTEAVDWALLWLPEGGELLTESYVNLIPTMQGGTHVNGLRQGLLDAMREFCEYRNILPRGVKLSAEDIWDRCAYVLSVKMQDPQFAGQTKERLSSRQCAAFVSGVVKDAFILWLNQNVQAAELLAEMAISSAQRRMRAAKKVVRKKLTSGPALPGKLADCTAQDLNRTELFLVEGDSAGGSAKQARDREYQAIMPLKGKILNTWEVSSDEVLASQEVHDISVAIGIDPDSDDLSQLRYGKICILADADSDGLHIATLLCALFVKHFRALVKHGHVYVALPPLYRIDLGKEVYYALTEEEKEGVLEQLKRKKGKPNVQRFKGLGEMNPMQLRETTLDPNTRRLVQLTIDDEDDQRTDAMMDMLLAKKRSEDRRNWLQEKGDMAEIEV

Turning to `CCn1cc(C(=O)O)c(=O)c2cnc(N3CCN(C(=S)Nc4cccc(C(F)(F)F)c4)CC3)nc21` [Compound 1, reference compound], the EC50 is greater than 100 µM with E. coli K-12 BW25113; 5.9 ± 0.2 µM in the assay on JE2; 8.2 ± 1.7 µM in the assay with S. aureus SH1000; 1.1 ± 0.1 µM in assay [1]; 6.5 ± 0.1 µM in the assay on MRSA (USA300 JE2) [2]; 6.9 ± 0.6 µM in assay [3] (setting [5]). Besides, the EC50 in the assay with MRSA (USA300 JE2) [4] stood at 3.3 ± 0.6 µM. Also, the “Combination index (CI) with CFX” value with JE2 is 1.0. Moreover, on E. coli topoisomerase IV, the “Inhibition of topoisomerase IV” value was “not inhibited and not”.
On to `CCn1cc(C(=O)O)c(=O)c2cnc(N3CCN(C(=S)Nc4cccc(Cl)c4)CC3)nc21` [Compound 5], for which the EC50 in the assay on E. coli K-12 BW25113 is greater than 100 µM; in the assay on JE2, 6.2 ± 0.1 µM; in the assay on S. aureus SH1000 it was roughly 6 µM; in assay [1] it was 0.31 ± 0.02 µM; with MRSA (USA300 JE2) [2], 8.4 ± 0.2 µM; in assay [3] (setting [5]), roughly 6 µM. Further, the EC50 in assay [3] (read-out: EC50 S. aureus (USA300 JE2) Compound only, single agent, end-point OD600 after 18 h) worked out at 6.9 ± 0.1 µM; in the assay on MRSA (USA300 JE2) [4] it was 4.5 ± 1.2 µM. Also, the “Combination index (CI) with CFX” value in the assay on JE2 was found to be 0.96. Besides, the “fold increase in potency against JE2 in the presence of CFX compared to single agent” value in assay [1] (CFX 9.4 µM) was roughly 20 fold. Moreover, at E. coli topoisomerase IV, the “Inhibition of topoisomerase IV” value is given as “not”.
